Assay results from patent US11938137B2, “Lipid prodrugs of mycophenolic acid and uses thereof” (PureTech LYT, Inc., priority 2017, dated 2024).

Test: Lymphatic transport assay in mesenteric lymph-duct cannulated rats
Assay type: in vivo, rat
Conditions: class symbols
Protocol: In order to assess the lymphatic transport of disclosed lipid prodrugs in rats, the mesenteric lymph ducts of the rats used in this study were cannulated to allow continual collection of mesenteric lymph. Lipid formulations containing the compound of interest were then administered to the animals, lymph was collected, and drug concentrations in the lymph samples were quantified.
Lipid-based formulations of the compounds of the invention or control compounds were prepared as previously described (Trevaskis, N. L. et al., Pharmaceutical Research, 2005, 22(11), 1863-1870, WO 2016/023082, and WO 2017/041139, hereby incorporated by reference.
In brief, either 1 or 2 mg of test prodrug, 40 mg oleic acid and 25 mg Tween 80 were mixed in a glass vial and incubated at 37° C. for 12-18 h to equilibrate. An aqueous phase consisting of 5.6 ml phosphate buffered saline (PBS, pH 7.4) was subsequently added to the lipid phase (MPA was dissolved in PBS for the preparation of MPA containing formulations) and the formulation emulsified by ultrasonication with a Misonix XL 2020 ultrasonic processor (Misonix, Farmingdale, NY, USA) equipped with a 3.2-mm microprobe tip running at 30% of the maximal amplitude of 240 μm and a frequency of 20 kHz for 2 min at room temperature. Doses for administering to more than one animal can be prepared in one batch by suitably increasing the quantities given above. Drug/prodrug concentrations in all formulations were verified using HPLC-MS.
Male Sprague-Dawley (SD) rats were selected for the lymphatic transport studies. Rats (typically 240-320 g) were maintained on a standard diet and fasted overnight with free access to water prior to experiments.
Anesthetized rats were placed on a heated pad at 37° C. and cannulas inserted into the duodenum (for formulation administration and rehydration), mesenteric lymph duct (for lymph collection), and carotid artery (in cases where blood collection was conducted). Post-surgery, rats were re-hydrated for 0.5 h via intraduodenal infusion of normal saline at 2.8 mL/h. The lipid formulations were infused into the duodenum at 2.8 mL/h for 2 h after which, normal saline was infused at 2.8 mL/h for the remainder of the experiment. Lymph was continuously collected for up to 8 h into pre-weighed Eppendorf tubes containing 10 μL of 1,000 IU/mL heparin. The collection tubes were changed hourly and lymph flow was measured gravimetrically. Aliquots of hourly lymph samples were stored at −20° C. prior to assay.
Drug concentration in lymph is expressed as total drug and includes free drug and drug associated with different glycerides. Lymph samples are first treated with a lipase or other appropriate conditions to liberate free active agent prior to measurement of active agent levels in the lymph. Treatment with a lipase or other hydrolysis conditions liberates free active agent from any corresponding re-esterified glycerides. Porcine pancreatic lipase is appropriate for this purpose. Alternatively, hydrolysis with 0.5 M NaOH may be used. For MPA “phenol” prodrugs (i.e. prodrugs linked to the triglyceride at the aromatic —OH group of MPA), hydrolysis was performed with 0.5 M NaOH except for the lymph samples collected from 3 rats in the group of compound I-20 (MPA-O-C12α′βMe-TG), which were hydrolyzed by porcine pancreatic lipase.
Transport of compounds into lymph during each hourly collection period was calculated from the product of the volume of lymph collected and the measured concentrations in lymph. For fluorescently-labelled compounds such as a BDP-conjugate, the concentrations of total compound may be measured by fluorescence spectroscopy without hydrolysis.
The results of the lymphatic transport assays are summarized in Table 2, below, and FIGS. 1-19. Table 2 summarizes lymphatic transport of total MPA related compound (% of administered dose) following intraduodenal infusion to anaesthetised, mesenteric lymph-duct cannulated rats. […]

[1] = total MPA related compound, intraduodenal infusion, anesthetised mesenteric lymph-duct cannulated rats

Structure (SMILES) | Cumulative lymphatic transport % dose (Mean ± SD, or Range if n = 2) [1] | Cumulative lymphatic transport % dose (Mean ± SD, or Range if n = 2) (as E2 but dose 1 mg/rat)
CCCCCCCCCCCCCCCC(=O)OCC(COC(=O)CCCCCCCCCCCCCCC)OC(=O)CCC(=O)Oc1c(C/C=C(\C)CCC(=O)OC)c(OC)c(C)c2c1C(=O)OC2 [I-17] | C (less than 1% and greater than 0.24% (<1% and >0.24%)) | –
CCCCCCCCCCCCCCCC(=O)OCC(COC(=O)CCCCCCCCCCCCCCC)OCCCCOC(=O)CC/C(C)=C/Cc1c(O)c2c(c(C)c1OC)COC2=O [I-25, (E)-2-(4-((6-(4-hydroxy-6-methoxy-7-methyl-3-oxo-1,3-dihydroisobenzofuran-5-yl)-4-methylhex-4-enoyl)oxy)butoxy)propane-1,3-diyl dipalmitate] | C (less than 1% and greater than 0.24% (<1% and >0.24%)) | –
CCCCCCCCCCCCCCCC(=O)OCC(COC(=O)CCCCCCCCCCCCCCC)OCCCCCCOC(=O)CC/C(C)=C/Cc1c(O)c2c(c(C)c1OC)COC2=O [I-26, (E)-2-((6-((6-(4-hydroxy-6-methoxy-7-methyl-3-oxo-1,3-dihydroisobenzofuran-5-yl)-4-methylhex-4-enoyl)oxy)hexyl)oxy)propane-1,3-diyl dipalmitate] | C (less than 1% and greater than 0.24% (<1% and >0.24%)) | –
CCCCCCCCCCCCCCCC(=O)OCC(COC(=O)CCCCCCCCCCCCCCC)OC(=O)OCCCOC(=O)CC/C(C)=C/Cc1c(O)c2c(c(C)c1OC)COC2=O [I-27, (E)-2-(((3-((6-(4-hydroxy-6-methoxy-7-methyl-3-oxo-1,3-dihydroisobenzofuran-5-yl)-4-methylhex-4-enoyl)oxy)propoxy)carbonyl)oxy)propane-1,3-diyl dipalmitate] | B (between 1% and 10% (1%-10%)) | –
CCCCCCCCCCCCCCCC(=O)OCC(COC(=O)CCCCCCCCCCCCCCC)OC(=O)CC(C)CCCCCCCC(C)C(=O)Oc1c(C/C=C(\C)CCC(=O)OCCN2CCOCC2)c(OC)c(C)c2c1C(=O)OC2 (stereo not drawn) [I-32, (E)-12-(1,3-bis(palmitoyloxy)propan-2-yl) 1-(6-methoxy-7-methyl-5-(3-methyl-6-(2-morpholinoethoxy)-6-oxohex-2-en-1-yl)-3-oxo-1,3-dihydroisobenzofuran-4-yl) 2,10-dimethyldodecanedioate] | A (greater than 10% (>10%)) | –
CCCCCCCCCCCCCCCC(=O)OCC(COC(=O)CCCCCCCCCCCCCCC)OC(=O)CCCCCCCCCCCOC(=O)CC/C(C)=C/Cc1c(O)c2c(c(C)c1OC)COC2=O [I-37, (E)-2-((12-((6-(4-hydroxy-6-methoxy-7-methyl-3-oxo-1,3-dihydroisobenzofuran-5-yl)-4-methylhex-4-enoyl)oxy)dodecanoyl)oxy)propane-1,3-diyl dipalmitate] | – | A (greater than 10% (>10%))
CCCCCCCCCCCCCCCC(=O)OCC(COP(=O)(O)OCC[N+](C)(C)C)OC(=O)CC/C(C)=C/Cc1c(O)c2c(c(C)c1OC)COC2=O (stereo not drawn) [I-39] | C (less than 1% and greater than 0.24% (<1% and >0.24%)) | –
CCCCCCCCCCCCCCCC(=O)OCC(COC(=O)CCCCCCCCCCCCCCC)OC(=O)CC(C)CCCCCCCC(C)C(=O)OCOc1c(C/C=C(\C)CCC(=O)OC)c(OC)c(C)c2c1C(=O)OC2 (stereo not drawn) [I-44] | A (greater than 10% (>10%)) | –

Further lines, results first:

Cumulative lymphatic transport % dose (Mean ± SD, or Range if n = 2) [1] | Cumulative lymphatic transport % dose (Mean ± SD, or Range if n = 2) (as E2 but dose 1 mg/rat) | Structure (SMILES)
A (greater than 10% (>10%)) | – | CCCCCCCCCCCCCCCC(=O)OCC(COC(=O)CCCCCCCCCCCCCCC)OC(=O)CC(C)CCCC(=O)Oc1c(C/C=C(\C)CCC(=O)OC)c(OC)c(C)c2c1C(=O)OC2 (stereo not drawn) [I-16, MPA-(O—C10bMe-2-TG)-OMe]
B (between 1% and 10% (1%-10%)) | – | CCCCCCCCCCCCCCCC(=O)OCC(COC(=O)CCCCCCCCCCCCCCC)OC(=O)CCCCC(=O)Oc1c(C/C=C(\C)CCC(=O)OC)c(OC)c(C)c2c1C(=O)OC2 [I-18]
B (between 1% and 10% (1%-10%)) | – | CCCCCCCCCCCCCCCC(=O)OCC(COC(=O)CCCCCCCCCCCCCCC)OC(=O)CC(C)CCCCCCCC(C)C(=O)OCOC(=O)Oc1c(C/C=C(\C)CCC(=O)OC)c(OC)c(C)c2c1C(=O)OC2 (stereo not drawn) [I-21, (E)-12-(1,3-Bis(palmitoyloxy)propan-2-yl) 1-(((((6-methoxy-5-(6-methoxy-3-methyl-6-oxohex-2-en-1-yl)-7-methyl-3-oxo-1,3-dihydroisobenzofuran-4-yl)oxy)carbonyl)oxy)methyl) 2,10-dimethyldodecanedioate]
B (between 1% and 10% (1%-10%)) | – | CCCCCCCCCCCCCCCC(=O)OCC(COC(=O)CCCCCCCCCCCCCCC)OC(=O)CCc1ccc(OC(=O)CC/C(C)=C/Cc2c(O)c3c(c(C)c2OC)COC3=O)cc1 [I-28, (E)-2-((3-(4-((6-(4-hydroxy-6-methoxy-7-methyl-3-oxo-1,3-dihydroisobenzofuran-5-yl)-4-methylhex-4-enoyl)oxy)phenyl)propanoyl)oxy)propane-1,3-diyl dipalmitate]
A (greater than 10% (>10%)) | – | CCCCCCCCCCCCCCCC(=O)OCC(COC(=O)CCCCCCCCCCCCCCC)OC(=O)CCCCCCCCCCC(=O)Oc1c(C/C=C(\C)CCC(=O)OC)c(OC)c(C)c2c1C(=O)OC2 [I-30, (E)-1-(1,3-bis(palmitoyloxy)propan-2-yl) 12-(6-methoxy-5-(6-methoxy-3-methyl-6-oxohex-2-en-1-yl)-7-methyl-3-oxo-1,3-dihydroisobenzofuran-4-yl) dodecanedioate]
A (greater than 10% (>10%)) | – | CCCCCCCCCCCCCCCC(=O)OCC(COC(=O)CCCCCCCCCCCCCCC)OC(=O)CC(C)CCCCCCCCCCCC(=O)Oc1c(C/C=C(\C)CCC(=O)OC)c(OC)c(C)c2c1C(=O)OC2 (stereo not drawn) [I-31, (E)-1-(1,3-bis(palmitoyloxy)propan-2-yl) 15-(6-methoxy-5-(6-methoxy-3-methyl-6-oxohex-2-en-1-yl)-7-methyl-3-oxo-1,3-dihydroisobenzofuran-4-yl) 3-methylpentadecanedioate]
B (between 1% and 10% (1%-10%)) | – | CCCCCCCCCCCCCCCC(=O)OCC(COC(=O)CCCCCCCCCCCCCCC)OC(=O)CCCCCCOC(=O)CC/C(C)=C/Cc1c(O)c2c(c(C)c1OC)COC2=O [I-36, (E)-2-((7-((6-(4-hydroxy-6-methoxy-7-methyl-3-oxo-1,3-dihydroisobenzofuran-5-yl)-4-methylhex-4-enoyl)oxy)heptanoyl)oxy)propane-1,3-diyl dipalmitate]
– | B (between 1% and 10% (1%-10%)) | CCCCCCCCCCCCCCCC(=O)OCC(COC(=O)CCCCCCCCCCCCCCC)OC(=O)CCCCCCCCCCCCCCCCCOC(=O)CC/C(C)=C/Cc1c(O)c2c(c(C)c1OC)COC2=O [I-38, (E)-2-((18-((6-(4-hydroxy-6-methoxy-7-methyl-3-oxo-1,3-dihydroisobenzofuran-5-yl)-4-methylhex-4-enoyl)oxy)octadecanoyl)oxy)propane-1,3-diyl dipalmitate]
A (greater than 10% (>10%)) | – | CCCCCCCCCCCCCCCC(=O)OCC(COC(=O)CCCCCCCCCCCCCCC)OC(=O)C(C)CCCCCCCCC(C)C(=O)OCOc1c(C/C=C(\C)CCC(=O)OC)c(OC)c(C)c2c1C(=O)OC2 (stereo not drawn) [I-41]
A (greater than 10% (>10%)) | – | CCCC(=O)OCC(COC(=O)CCC)OC(=O)CC(C)CCCCCCCCCCCCOC(=O)CC/C(C)=C/Cc1c(O)c2c(c(C)c1OC)COC2=O (stereo not drawn) [I-43]
